What was measured:
[1] = system: LRV1 (LgyLRV1 capsid levels); assay: organism not typed; conditions: for LRV1 capsid (geometric mean FU) / Percent control (LRV1 capsid): tested at 100 μM; for LRV1 capsid (geometric mean FU) / Percent control (LRV1 capsid) / Effect on LRV1 (capsid) levels, in words: 2 days; for activity at 100 µM: 48 h, read-out: Percent control (LRV1 capsid); for Effect on LRV1 (capsid) levels, in words: screen at 100 μM or maximum concentration permitted by solubility; for Inhibition of LRV1 levels, in words: concentrations up to 100 μM, data not shown
From the text: Because LRV1 (like most Totiviridae) is not shed from the cell (33, 34), we developed a flow cytometric assay to measure intracellular LRV1 capsid levels on a per cell basis. To detect LRV1 we used binding to a rabbit anti-LgyLRV1 capsid antiserum (35) followed by detection with Alexa Fluor488-conjugated goat anti-rabbit IgG.
(§1) Parasites were inoculated at 2×10^5 cells/mL into Schneider's media lacking supplemental adenine.
For capsid flow cytometry, 10^7 cells were fixed at room temperature using 2% (wt/vol) paraformaldehyde (Thermo Fisher Scientific) in PBS for 2 minutes. They were then incubated in blocking buffer [10% (vol/vol) normal goat serum (Vector Laboratories, Burlingame, Calif., USA) and 0.2% TRITON X-100 in PBS] for 30 minutes at room temperature. Anti-LgyLRV1 capsid antibody (35) was added (1:20,000 dilution) and incubated at room temperature for 1 hour. After two washes with PBS, cells were resuspended in 200 μL PBS with Alexa Fluor488-labeled goat anti-rabbit IgG (Alexafluor, Invitrogen; 1:1,000; or Thermo Fisher Scientific; 1:2,000 dilution), and incubated 1 hour at room temperature. After two additional washes with PBS, cells were subjected to flow cytometry, gating for single cells using forward and side scatter and the data analyzed using […] software (BD Bioscience, San Jose, Calif., USA).

L. guyanensis (LgyLRV1+) = assay: Drug-inhibition test: growth of LgyLRV1+ parasites; type: cell-based, Leishmania guyanensis; conditions: for Density (cells/mL) / Percent control (density) / activity at 100 µM: LgyLRV1+, tested at 100 μM, growth after 2 days; for activity at 100 µM: Leishmania guyanensis, 48 h, read-out: Percent control (density); for Effect on L. guyanensis growth, in words: screen at 100 μM or maximum concentration permitted by solubility, 2 days
Method: These compounds were examined for their ability to inhibit the growth of LgyLRV1^+ and virus levels by LRV1 capsid flow cytometry.
Most studies were performed using luciferase-expressing transfectants of L. guyanensis (MHOM/BR/78/M4147) described previously [LRV1^+ LgyM4147/SSU:IR2SAT-LUC(b)c3 and LRV^−LgyM4147/pX63HYG/SSU:IR2SAT-LUC(b)c4] (54); these lines are termed LgyLRV1^+ and LgyLRV1^−, respectively. Two strains of LRV1^+L. braziliensis were examined: LEM2780 (MHOM/BO/90/CS) and LEM3874 (MHOM/BO/99/IMT252 no. 3) (12). Parasites were grown in Schneider's media (Sigma Aldrich, St. Louis, Mo., USA) prepared according to the supplier's instructions with pH adjusted to 6.5 and supplemented with 0.76 mM hemin, 2 μg/mL biopterin, 50 U/mL penicillin, 50 μg/mL streptomycin, and 10% (vol/vol) heat-inactivated FBS. Cell concentrations were determined using a Coulter Counter ([…], Indianapolis, Ind., USA).
as §1

Molecule	LRV1 capsid (geometric mean FU) ([1]; LgyLRV1+) [FU]	Percent control (LRV1 capsid) ([1]; LgyLRV1+) [Percent control]	Density (cells/mL) (L. guyanensis (LgyLRV1+))	Percent control (density) (L. guyanensis (LgyLRV1+)) [Percent control]	activity at 100 µM [1] [%]	activity at 100 µM (L. guyanensis (LgyLRV1+)) [%]	other results
3′-Azido-3′-hydroxyethyl cyclobutyl adenine [Compound E8]	277	104	1.86E+7	111			
3′-Azido-3′-hydroxyethyl cyclobutyl adenine [Compound E9]	279	105	1.58E+7	94			
3′-Hydroxyethyl cyclobutyl adenine	290	109	1.82E+7	108			
Nc1ncnc2c1ncn2[C@@H]1O[C@H](CO)[C@@H](O)[C@H]1F [2′-Fluoro-2′-deoxyadenosine]	257		2.07E+7		97	123	
Nc1ccn([C@@H]2O[C@H](CO)[C@@H](O)[C@H]2F)c(=O)n1 [2′-Fluoro-2′-deoxycytidine]	230		2.21E+7		87	132	
OC[C@H]1O[C@@H](n2cnc3c(O)ncnc32)[C@H](F)[C@@H]1O [2′-Fluoro-2′-deoxyinosine]	255		2.41E+7		96	143	
Nc1nc2c(ncn2[C@@H]2O[C@H](CO)[C@@H](O)[C@H]2F)c(=O)[nH]1 [2′-fluoro-2′-deoxyguanosine, 2′-Fluoro-2′-deoxyguanosine]	326		1.68E+7		123	100	
O=c1ccn([C@@H]2O[C@H](CO)[C@@H](O)[C@H]2F)c(=O)[nH]1 [2′-fluoro-2′-deoxyuridine, 2′-Fluoro-2′-deoxyuridine]	234		2.22E+7		88	132	
C[C@@]1(O)[C@H](O)[C@@H](CO)O[C@H]1n1cnc2c(=O)[nH]c(N)nc21 [2′C-Methyguanosine, 2′C-Methyl guanosine]	252	95	2.25E+7	133			Effect on LRV1 (capsid) levels, in words [1]: little effect; Effect on L. guyanensis growth, in words (L. guyanensis (LgyLRV1+)): little effect
C[C@@]1(O)[C@H](O)[C@@H](CO)O[C@H]1n1ccc(N)nc1=O [2′C-Methylcytidine, 2′C-Methyl cytidine]	162	61	1.73E+7	103			Effect on LRV1 (capsid) levels, in words [1]: little effect; Effect on L. guyanensis growth, in words (L. guyanensis (LgyLRV1+)): little effect
Nc1ncnc2c(CN3C[C@H](CO)[C@@H](O)C3)c[nH]c12 [DADMe-Immucillin A]							Inhibition of LRV1 levels, in words [1]: no inhibition of LRV1 levels
O=c1[nH]cnc2c(CN3C[C@H](CO)[C@@H](O)C3)c[nH]c12 [DADMe-Immucillin H]							Inhibition of LRV1 levels, in words [1]: no inhibition of LRV1 levels
Nc1ncnc2c(C3N[C@H](CO)[C@@H](O)[C@H]3O)c[nH]c12 (stereo partly drawn) [Immucillin A]							Inhibition of LRV1 levels, in words [1]: no inhibition of LRV1 levels
O=c1[nH]cnc2c([C@@H]3N[C@H](CO)[C@@H](O)[C@H]3O)c[nH]c12 [Immucillin H]							Inhibition of LRV1 levels, in words [1]: no inhibition of LRV1 levels
Nc1ccn([C@@H]2CS[C@H](CO)O2)c(=O)n1 [Lamivudine]			9.20E+6			55	
Nc1ncnc2nc[nH]c12 [adenine]							Effect of exogenous adenine on LRV1 levels, in words ([1]; adenine up to 400 μM, LgyLRV1+): nor did it alter LRV1 levels
